Results taken from patent US6875761B2 (Eisai Co., Ltd., priority 1997, dated 2005).
Structures can show the parent of a compound that is named as a salt.

Columns and labels:
serotonin 2 receptor = target: T1, serotonin 2 receptor (Rattus norvegicus, UniProt P14842); test: Binding test on [3H] ketanserin, cerebral cortex receptor fraction; parameters: species or system SD rats; conditions: 0.3 nM [3H] ketanserin, 37° C. 15 min, read-out: 5HT2
T1 construct: To the receptor fraction of the cerebral cortex were added a test compound and 0.3 nM of [^3H] ketanserin; from tissue; host or cells: rat cerebral cortex membrane fraction
T1 sequence (P14842 whole entry): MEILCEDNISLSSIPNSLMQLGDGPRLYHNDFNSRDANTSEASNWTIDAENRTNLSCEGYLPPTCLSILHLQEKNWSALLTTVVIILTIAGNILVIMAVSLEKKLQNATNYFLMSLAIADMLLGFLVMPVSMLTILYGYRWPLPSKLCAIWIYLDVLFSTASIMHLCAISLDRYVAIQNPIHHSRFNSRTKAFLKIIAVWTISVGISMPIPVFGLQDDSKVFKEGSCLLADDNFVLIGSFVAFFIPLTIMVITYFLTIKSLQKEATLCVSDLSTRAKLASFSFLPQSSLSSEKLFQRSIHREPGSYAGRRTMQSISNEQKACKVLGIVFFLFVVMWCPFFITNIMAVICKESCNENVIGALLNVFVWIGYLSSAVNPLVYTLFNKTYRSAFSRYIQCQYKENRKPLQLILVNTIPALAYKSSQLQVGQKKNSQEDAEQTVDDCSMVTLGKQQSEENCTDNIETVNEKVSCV

serotonin 1A receptor = target: T2, serotonin 1A receptor (Rattus norvegicus, UniProt P19327); test: Binding test on [3H] 8-hydroxy-dipropylaminotetralin, hippocampus receptor fraction; parameters: species or system SD rats; conditions: rat hippocampus receptor fraction, 0.5 nM [3H] 8-OH-DPAT, room temperature 30 min; read-out: 5HT1
T2 construct: To the receptor fraction of the hippocampus were added a test compound and 0.5 nM of [^3H]; 8-hydroxy-dipropylaminotetralin; from tissue; host or cells: rat hippocampus membrane fraction
T2 sequence (P19327 1-422): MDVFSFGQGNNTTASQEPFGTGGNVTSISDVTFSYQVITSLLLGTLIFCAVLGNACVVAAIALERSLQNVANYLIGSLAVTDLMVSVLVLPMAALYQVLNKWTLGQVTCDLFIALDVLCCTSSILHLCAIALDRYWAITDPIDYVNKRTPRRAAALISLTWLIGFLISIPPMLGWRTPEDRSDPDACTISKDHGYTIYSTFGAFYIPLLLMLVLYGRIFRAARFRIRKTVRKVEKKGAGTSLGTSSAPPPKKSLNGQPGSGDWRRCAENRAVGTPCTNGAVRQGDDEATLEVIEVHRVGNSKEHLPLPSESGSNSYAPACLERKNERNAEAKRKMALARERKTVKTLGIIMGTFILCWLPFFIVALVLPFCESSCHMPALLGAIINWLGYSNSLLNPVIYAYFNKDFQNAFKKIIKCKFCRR

Compound	melting point	Ki (serotonin 2 receptor) [nM]	Ki (serotonin 1A receptor) [nM]
CCN1CCN(c2nc(-c3cc(OC)ccc3OC)cc3ccccc23)CC1.Cl	189 to 191 °C	–	–
CCC1CCN(c2nc(-c3ccc(OC)cc3)cc3ccccc23)CC1.Cl	109 to 114 °C	–	–
COc1ccc(-c2cc3ccccc3c(N3CCOCC3)n2)cc1.Cl	137 to 139 °C	–	–
COc1ccc(-c2cc3ccccc3c(NCCc3ccccn3)n2)cc1.Cl	138 to 140 °C	–	–
CCOc1ccc(-c2cc3ccccc3c(N3CCN(CC)CC3)n2)cc1.Cl.Cl	197 to 198 °C (dec.)	–	–
CCN1CCN(c2nc(-c3ccccc3O)cc3ccccc23)CC1.Cl	228 to 230 °C	–	–
CCN1CCN(c2nc(-c3nc(C)c(CCO)s3)cc3ccccc23)CC1 (as salt: hydrochloride)	149 to 154 °C	–	–
CCN1CCN(c2nc(-c3ccn(CCO)n3)cc3ccccc23)CC1 (as salt: hydrochloride)	134 to 140 °C	–	–
CCN1CCN(c2nc(-c3ccc(OC)cc3)cc3cc(F)ccc23)CC1 (as salt: hydrochloride)	131 to 135 °C	–	–
CCN1CCN(c2nc(-c3ccc(OC)cc3)cc3ccc(C)cc23)CC1 (as salt: hydrochloride)	243 to 246 °C	–	–
CCN1CCN(c2nc(-c3ccccc3OC)cc3ccc(OC)cc23)CC1 (as salt: hydrochloride)	178 to 179 °C	–	–
CCCN1CCN(c2nc(-c3ccc(OCCO)cc3)cc3ccccc23)CC1 (as salt: hydrochloride)	220 to 225 °C	–	–
COc1ccc(-c2cc3ccccc3c(N3CCN(C(C)C)CC3)n2)cc1 (as salt: hydrochloride)	220 °C (dec.)	–	–
CCN1CCN(c2nc(-c3ccc(OC)cc3)cc3cnccc23)CC1 (as salt: hydrochloride)	157 to 160 °C	–	–
CCN1CCN(c2nc(-c3ccc(OC)cc3)cc3cccc(C)c23)CC1 (as salt: hydrochloride)	248 to 253 °C	–	–
COc1ccc(-c2cc3ccccc3c(N3CCN(CCC#N)CC3)n2)cc1 (as salt: hydrochloride)	164 to 166 °C	–	–
CCN1CCCN(c2nc(-c3ccc(OC)cc3)cc3ccccc23)CC1 (as salt: hydrochloride)	124 to 125 °C	–	–
CCCC(=O)c1ccc(-c2cc3ccccc3c(N3CCN(CC)CC3)n2)cc1 (as salt: hydrochloride)	110 to 112.5 °C (dec.)	–	–
CCN1CCN(c2nc(-c3ccc(C4(CCO)CCOCC4)cc3)cc3ccccc23)CC1 (as salt: hydrochloride)	138 to 139 °C	–	–
CCN1CCN(c2nc(-c3ccc(OC)cc3)c(Cl)c3ccccc23)CC1 (as salt: hydrochloride)	200.5 to 201.5 °C (dec.)	–	–
CCN1CCN(c2nc(-c3ccc(OCCCN)cc3)cc3ccccc23)CC1 (as salt: hydrochloride)	173 to 176 °C	–	–
CCN1CCN(c2nc(-c3ccccc3OC)cc3ccccc23)CC1 (as salt: hydrochloride)	133 to 135 °C	–	–

Compound	melting point	Ki (serotonin 2 receptor) [nM]	Ki (serotonin 1A receptor) [nM]
CCN1CCN(c2nc(-c3ccc(CC(C)CO)cc3)cc3ccsc23)CC1 (stereo not drawn) [Example 441, 7-(4-ethylpiperazin-1-yl)-5-[4-(3-hydroxy-2-methylpropyl)phenyl]thieno[2,3-c]pyridine dihydrochloride]	–	0.41	15.2
CCN1CCN(c2nc(-c3ccc(CC(C)(C)CO)cc3)cc3ccsc23)CC1 [Example 442, 7-(4-ethylpiperazin-1-yl)-5-[4-(3-hydroxy-2,2-dimethylpropyl)phenyl]thieno[2,3-c]pyridine dihydrochloride]	–	2.66	23.2
CCN1CCN(c2nc(-c3ccc(C(C)(C)CCO)cc3)cc3ccsc23)CC1 [Example 443, 7-(4-ethylpiperazin-1-yl)-5-[4-(3-hydroxy-1,1-dimethylpropyl)phenyl]thieno[2,3-c]pyridine dihydrochloride]	–	1.85	10.2
CCN1CCN(c2nc(-c3ccc(SC[C@@H](C)O)cc3)cc3ccsc23)CC1 [Example 444, 7-(4-ethylpiperazin-1-yl)-5-[4-(2-hydroxypropylthio)phenyl]thieno[2,3-c]pyridine dihydrochloride]	–	12	43.2
CCN1CCN(c2nc(-c3ccc(S(C)(=O)=O)cc3)cc3ccsc23)CC1 [Example 445, 7-(4-ethylpiperazin-1-yl)-5-(4-methanesulfonylphenyl)thieno)[2,3-c]pyridine dihydrochloride]	–	90.4	5.46
CCCC(O)c1ccc(-c2cc3ccsc3c(N3CCN(CC)CC3)n2)cc1 (stereo not drawn) [Example 446, 7-(4-ethylpiperazin-1-yl)-5-[4-(1-hydroxybutyl)phenyl]thieno[2,3-c]pyridine dihydrochloride]	–	30	12.2
CCNC(=O)c1ccc(-c2cc3ccsc3c(N3CCN(CC)CC3)n2)cc1 [Example 448, 7-(4-ethylpiperazin-1-yl)-5-[4-(N-ethylcarbamoyl)phenyl]thieno[2,3-c]pyridine dihydrochloride]	–	346	22.6
CCCNC(=O)c1ccc(-c2cc3ccsc3c(N3CCN(CC)CC3)n2)cc1 [Example 449, 7-(4-ethylpiperazin-1-yl)-5-[4-(N-propylcarbamoyl)phenyl]thieno[2,3-c]pyridine dihydrochloride]	–	43.8	24
CCN1CCN(c2nc(-c3ccc(S(=O)(=O)CC)cc3)cc3ccsc23)CC1 [Example 450, 7-(4-ethylpiperazin-1-yl)-5-(4-ethanesulfonylphenyl)thieno[2,3-c]pyridine dihydrochloride]	–	15.2	6.89
CCCS(=O)(=O)c1ccc(-c2cc3ccsc3c(N3CCN(CC)CC3)n2)cc1 [Example 451, 7-(4-ethylpiperazin-1-yl)-5-(4-propanesulfonylphenyl)thieno[2,3-c]pyridine dihydrochloride]	–	37.9	7.72
CCCCNC(=O)c1ccc(-c2cc3ccsc3c(N3CCN(CC)CC3)n2)cc1 [Example 452, 7-(4-ethylpiperazin-1-yl)-5-[4-(N-butylcarbamoyl)phenyl]thieno[2,3-c]pyridine dihydrochloride]	–	7.04	19.6
CCN1CCN(c2nc(-c3ccc(C(=O)NC4CCCC4)cc3)cc3ccsc23)CC1 [Example 453, 7-(4-ethylpiperazin-1-yl)-5-[4-(N-cyclopentylcarbamoyl)phenyl]thieno[2,3-c]pyridine dihydrochloride]	–	45.4	22.2
CCN1CCN(c2nc(-c3ccc4c(c3)CC(C)(CO)O4)cc3ccsc23)CC1 (stereo not drawn) [Example 456, dihydrochloride]	–	16.2	63.3
CCN1CCN(c2nc(-c3ccc(C(O)C4CCCCC4)cc3)cc3ccsc23)CC1 (stereo not drawn) [Example 457, 7-(4-Ethylpiperazin-1-yl)-5-[4-(cyclohexylhydroxymethyl)phenyl]thieno[2,3-c]pyridine dihydrochloride]	–	281	63.3
CCN1CCN(c2nc(-c3ccc(C(O)C4CCCC4)cc3)cc3ccsc23)CC1 (stereo not drawn) [Example 458, 7-(4-ethylpiperazin-1-yl)-5-[4-(cyclopentylhydroxymethyl)phenyl]thieno[2,3-c]pyridine dihydrochloride]	–	93.1	75.4
CCN1CCN(c2nc(-c3ccc(OC)cc3)cc3ccsc23)CC1 [Example 459, 7-(4-ethylpiperazin-1-yl)-5-(4-methoxyphenyl)thieno[2,3-c]pyridine dihydrochloride]	–	60.1	108
CCN1CCN(c2nc(-c3ccc(OCC4OCCO4)cc3)cc3sccc23)CC1 [Example 460, 4-(4-ethylpiperazin-1-yl)-6-[4-(1,3-dioxolan-2-yl)methoxyphenyl]thieno[3,2-c]pyridine oxalate]	–	175	5.32
CCN1CCN(c2nc(-c3ccc(OCCCO)cc3)cc3sccc23)CC1 [Example 462, 4-(4-ethylpiperazin-1-yl)-6-[4-(3-hydroxypropoxy)phenyl]thieno[3,2-c]pyridine dihydrochloride]	–	2.84	4.83
CCN1CCN(c2nc(-c3ccc(C#CCO)cc3)cc3sccc23)CC1 [Example 464, 4-(4-ethylpiperazin-1-yl)-6-[4-(3-hydroxy-1-propynyl)phenyl]thieno[3,2-c]pyridine pyridine]	–	1.4	47.8
CCN1CCN(c2nc(-c3ccc(CCCO)cc3)cc3sccc23)CC1 [Example 465, 4-(4-ethylpiperazin-1-yl)-6-[4-(3-hydroxypropy)phenyl]thieno[3,2-c]pyridine dihydrochloride]	–	7.11	6.28
CCN1CCN(c2nc(-c3ccc(C#CC(C)(C)O)cc3)cc3sccc23)CC1 [Example 466, 4-(4-ethylpiperazin-1-yl)-6-[4-(3-hydroxy-3-methyl-1-butynyl)phenyl]thieno[3,2-c]pyridine oxalate]	–	1	49.8
CCN1CCN(c2nc(-c3ccc(OC)cc3)cc3ccoc23)CC1 [Example 467, 7-(4-ethylpiperazin-1-yl)-5-(4-methoxyphenyl)furo[2,3-c]pyridine dihydrochloride]	–	93.1	20.6
